Reference: patent US20050130232A1, “Methods of screening for compounds that modulate hormone receptor activity” (Allergan, Inc., priority 2001, published 2005)
Where no end group is shown, it is not given here. [ ]: non-standard residue; d: D form. hArg = N=C(N)NCCCC[C@H](N)C(=O)O

What was measured:
protein kinase A = settings: selected protein kinase A synthetic substrates; cited from earlier work
RXR receptors = settings: cited from earlier work
RAR receptors = settings: cited from earlier work; for RAR isotype selectivity: in vitro binding assays
[1] = biological target: T1, RXR-associated protein kinase in Flag-RXR immunocomplexes (Homo sapiens, UniProt P19793); experiment: In vitro kinase reaction with [γ-32P]ATP on Flag-RXR immunocomplexes from transfected HEK 293 cells; assay type: cell-based; settings: transfected HEK 293 cells treated with ligand before anti-Flag immunoprecipitation
T1 construct: expressed in transfected cells; host or cells: HEK 293
T1 sequence (P19793 1-462): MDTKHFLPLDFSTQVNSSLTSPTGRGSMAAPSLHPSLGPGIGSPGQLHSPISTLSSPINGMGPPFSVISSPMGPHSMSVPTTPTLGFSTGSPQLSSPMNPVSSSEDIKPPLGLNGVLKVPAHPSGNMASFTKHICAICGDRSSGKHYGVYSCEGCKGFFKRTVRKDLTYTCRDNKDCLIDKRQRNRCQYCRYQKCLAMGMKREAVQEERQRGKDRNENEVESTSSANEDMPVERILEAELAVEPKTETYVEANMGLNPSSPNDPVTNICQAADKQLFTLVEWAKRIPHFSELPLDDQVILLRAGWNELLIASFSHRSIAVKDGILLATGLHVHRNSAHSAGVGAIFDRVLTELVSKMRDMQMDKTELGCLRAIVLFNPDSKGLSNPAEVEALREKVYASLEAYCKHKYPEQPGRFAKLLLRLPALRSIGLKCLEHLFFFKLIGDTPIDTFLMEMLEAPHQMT
Text: Total cell lysates were immunoprecipitated with anti-Flag antibody (M2). Aliquots of the immunocomplexes were used for the in vitro kinase reaction with [γ-^32P]ATP and separated on SDS-PAGE. Phosphorylated proteins were detected by autoradiography (top panel). Additional aliquots of the immunocomplexes were subjected to immunoblotting with polyclonal anti-RXR antisera (D20; bottom panel). (B) Phosphoamino acid analysis. Flag-RXR and the 160-kDa protein were phosphorylated in vitro and separated on SDS-PAGE as described above, then transferred onto PVDF membrane, detected by autoradiography, and cut out for hydrolysis with acid (6 N HCl). The phosphorylated amino acids and standards (P-Ser, P-Thr, and P-Tyr) were separated by thin-layer chromatography. Positions of the standards P-Ser, P-Thr, and P-Tyr were visualized by ninhydrin staining and are indicated by arrows. (C) In vivo metabolic labeling of transfected HEK 293 cells. […] Cells were washed with phosphate-free medium and starved for 90 minutes before incubation with [^32P]orthophosphate for another 4 hours. […] Total cell lysates were immunoprecipitated with anti-Flag antibody (M2) and subjected to separation on SDS-PAGE. Phosphorylated proteins were detected by autoradiography.
Total cell lysates were subjected to immunoprecipitation, and the in vitro kinase reaction performed as described above.
Cell lysis, immunoprecipitation with anti-Flag (M2), in vitro kinase assay, and detection of the phosphorylated proteins in the RXRα immunoprecipitated complexes were performed as described above.
Cell culture and transient transfection was performed as follows. HEK 293 cells were grown in Dulbecco's modified Eagle's medium (DMEM) supplemented with 10% fetal bovine serum (FBS), 100U of penicillin per ml and 10 μg of streptomycion per ml at 37° C. in 5% CO2. For expression of RXR protein, 100-mm dishes of cells were transfected at 50% confluence with 2 μg of plasmid DNA using Lipofectamine (Life Technologies) as specified by the manufacturer. At 32 hours post-transfection, cells were starved by incubating in DMEM medium with 2.5% charcoal-treated fetal bovine serum or 0.1-0.5% calf bovine serum overnight, and then treated with indicated agents. Cells were harvested by aspirating medium, rinsing in phosphate buffered saline (PBS), and extracting into Lysis Buffer (30 mM Tris-HCL, pH 7.4, 0.5% Nonidet P-40, 10% glycerol, 150 mM NaCl, 1 mM EDTA, 40 mM NaF, 1 mM sodium orthovanadate, and 0.5 mM phenylmethylsufonyl fluoride, and 1× protease inhibitors, (Roche Diagnostics) or 1×SDS Sample Buffer.
Immunoprecipitation was performed essentially as follows. Cells were solubilized in cold Lysis Buffer and subsequently clarified by centrifugation at 20,000 g for 10 minutes at 4° C. Immunoprecipitations were performed at 4° C. by incubating clarified cell extracts with the indicated antibodies (2 μg/ml) and protein A/G-agarose beads (1:30 dilution of a 50% suspension) on a rotating wheel for 4 hours to overnight. Agarose beads were pelleted by low speed centrifugation and washed extensively with ice-cold Lysis Buffer.
Protein kinase assays were performed as follows. Immunoprecipitated complexes were resuspended in 15 μl of Kinase Assay Buffer (30 mM Tris-HCl, pH 7.4 and 10 mM MgCl2). Kinase reactions were initiated by addition of 2.5 μl of 50 μM [γ-^32P]ATP (10 μCi) to the immune-complexes, followed by incubation at 25° C. with occasional shaking for 20 minutes, and terminated by addition of 6 μl 4×SDS Sample Buffer. After heating at 100° C. for 5 minutes, the reaction mixtures were resolved by 4-12% SDS-PAGE. Incorporation of ^32P into RXR or other proteins was determined by autoradiography.

[2] = biological target: Flag-tagged PH-RXRα (Flag tag, pleckstrin homology domain of human insulin receptor substrate-1, human RXRα) (UniProt P35568)

## V L Q A R R G T S I P Q (VLQARRGTSIPQ) [SEQ ID NO.: 109, protein kinase A synthetic substrate]
Protein kinase A
  Km: 139 µM

## L X^aR A S L G (L[hArg]RASLG) [SEQ ID NO.: 102, protein kinase A synthetic substrate, X = homoarginine]
Protein kinase A
  Km: 350 µM

## R T K R S G S V (RTKRSGSV) [SEQ ID NO.: 99, protein kinase A synthetic substrate]
Protein kinase A
  Km: 21 µM

## Cc1cc2c(cc1C1(c3ccc(C(=O)O)cn3)CC1)C(C)(C)CCC2(C)C [LG 100268]
RXR receptors
  binding to RXR receptors: binding to all three RXRs
RAR receptors
  binding to RAR receptors: not to any of the RAR isotypes

## V L Q R R R P T S I P Q (VLQRRRPTSIPQ) [SEQ ID NO.: 110, protein kinase A synthetic substrate]
Protein kinase A
  Km: 118 µM

## L R K A S L G (LRKASLG) [SEQ ID NO.: 100, protein kinase A synthetic substrate]
Protein kinase A
  Km: 260 µM

## CC1(C)CCC(C)(C)c2cc(C(=O)Nc3ccc(C(=O)O)cc3)ccc21 [Am 580]
RAR receptors
  RAR isotype selectivity: RARα-selective

## V L Q A R R G S S I P Q (VLQARRGSSIPQ) [SEQ ID NO.: 104, protein kinase A synthetic substrate]
Protein kinase A
  Km: 11 µM

## L H R A S L G (LHRASLG) [SEQ ID NO.: 101, protein kinase A synthetic substrate]
Protein kinase A
  Km: 415 µM

## R R A S F (RRASF) [SEQ ID NO.: 111, protein kinase A synthetic substrate]
Protein kinase A
  Km: 13 µM

## CC1(C)CCSc2ccc(C#Cc3ccc(C(=O)O)cn3)cc21 [AGN 190299]
RAR receptors
  RAR isotype selectivity: RARβ/γ selective

## LRRASLG [SEQ ID NO.: 94, L R R A S L G]
Protein kinase A
  Km: 16 µM

## V L Q R R R G T S I P Q (VLQRRRGTSIPQ) [SEQ ID NO.: 108, protein kinase A synthetic substrate]
Protein kinase A
  Km: 39 µM

## CC1=C(/C=C/C(C)=C\C=C\C(C)=C\C(=O)O)C(C)(C)CCC1 [9-cis RA, 9-cis-retinoic acid]
RXR receptors
  binding to RXR receptors: RXR receptor ligand
RAR receptors
  binding to RAR receptors: binds to the RAR receptors

## R R A S V A (RRASVA) [SEQ ID NO.: 92, protein kinase A synthetic substrate]
Protein kinase A
  Km: 20 µM

## V L Q R R R G S S I P Q (VLQRRRGSSIPQ) [SEQ ID NO.: 97, protein kinase A synthetic substrate]
Protein kinase A
  Km: 4 µM

## CC1(C)CCC(C)(C)c2cc(NC(=O)c3ccc(C(=O)O)cc3)ccc21 [Am 80]
RAR receptors
  RAR isotype selectivity: RARα-selective

## CC[C@]1(c2ccc3c(c2)C(C)(C)CCC3(C)C)C[C@H]1/C=C/C(C)=C/C(=O)O [AGN195184]
[1]
  phosphorylation of RXR and 160 kDa protein in Flag-RXR immunocomplexes: contained a kinase phosphorylated RXR and a 160 kDa protein

## G R G L S L S R (GRGLSLSR) [SEQ ID NO.: 90, protein kinase A synthetic substrate]
Protein kinase A
  Km: 240 µM

## CC1(C)CCC(C)(C)c2c1cc(C(=O)Nc1cc(F)c(C(=O)O)c(F)c1)c(O)c2Cl [AGN195183]
[1]
  phosphorylation of RXR and 160 kDa protein in Flag-RXR immunocomplexes: not stimulated

## C/C(=C\c1ccc(C(=O)O)cc1)c1ccc2c(c1)C(C)(C)CCC2(C)C [TTNPB]
[1]
  phosphorylation of RXR and 160 kDa protein in Flag-RXR immunocomplexes: neither RXR nor the 160 kDa protein was phosphorylated
RXR receptors
  binding to RXR receptors: not RXRs
RAR receptors
  binding to RAR receptors: binds RARs

## CC1(C)CCC(C)(C)c2cc(C3(c4ccc(C(=O)O)cn4)CC3)ccc21 [AGN195029]
[1]
  phosphorylation of RXR and 160 kDa protein in Flag-RXR immunocomplexes: contained a kinase phosphorylated RXR and a 160 kDa protein

## R R A S V (RRASV) [SEQ ID NO.: 93, protein kinase A synthetic substrate]
Protein kinase A
  Km: 24 µM

## CC(C)=C(c1ccc(C(=O)O)cc1)c1ccc2c(c1)C(C)(C)CCC2(C)C [SR 11217]
RXR receptors
  binding to RXR receptors: binding to all three RXRs
RAR receptors
  binding to RAR receptors: not to any of the RAR isotypes

## R R A S I (RRASI) [SEQ ID NO.: 112, protein kinase A synthetic substrate]
Protein kinase A
  Km: 7 µM

## CC1=C(/C=C/C(C)=C/C=C/C(C)=C/C(=O)O)C(C)(C)CCC1 [ATRA, All trans-retinoic acid]
RXR receptors
  binding to RXR receptors: does not bind the RXR receptors
RAR receptors
  binding to RAR receptors: physiological hormone for the RAR receptors

## R R A S L G (RRASLG) [SEQ ID NO.: 95, protein kinase A synthetic substrate]
Protein kinase A
  Km: 26 µM

## R T G R S G S V (RTGRSGSV) [SEQ ID NO.: 106, protein kinase A synthetic substrate]
Protein kinase A
  Km: 140 µM

## CCCCCCOc1c(\C(C)=C/C=C/C(C)=C/C(=O)O)cc(C(C)C)cc1C(C)C [AGN195393]
[1]
  phosphorylation of RXR and 160 kDa protein in Flag-RXR immunocomplexes: neither RXR nor the 160 kDa protein was phosphorylated

## CCC[C@]1(c2ccc3c(c2)C(C)(C)CCC3(C)C)C[C@H]1/C=C/C(C)=C/C(=O)O [AGN195203]
[1]
  phosphorylation of RXR and 160 kDa protein in Flag-RXR immunocomplexes: contained a kinase phosphorylated RXR and a 160 kDa protein

## CC1(C)CCC(C)(C)c2cc(C3(c4ccc(C(=O)O)cc4)OCCO3)ccc21 [SR 11237]
RXR receptors
  binding to RXR receptors: binding to all three RXRs
RAR receptors
  binding to RAR receptors: not to any of the RAR isotypes

## catalytic subunit of murine protein kinase A (expressed from pFC-PKA, Stratagene)
[2]
  protein kinase A activity in anti-Flag immunoprecipitates (substrate SEQ ID NO: 59), with against without AGN194204: Immunoprecipitates prepared with anti-Flag antibody showed a dramatic increase in the amount of protein kinase A activity

## L R R A S V A (LRRASVA) [SEQ ID NO.: 91, protein kinase A synthetic substrate]
Protein kinase A
  Km: > 10 µM

## A R T K R S G S V (ARTKRSGSV) [SEQ ID NO.: 98, protein kinase A synthetic substrate]
Protein kinase A
  Km: 10 µM

## L R R A S L (LRRASL) [SEQ ID NO.: 96, protein kinase A synthetic substrate]
Protein kinase A
  Km: 57 µM
